Consider three compounds from article PMC7650666, “Computational and In Vitro Investigation of (-)-Epicatechin and Proanthocyanidin B2 as Inhibitors of Human Matrix Metalloproteinase 1” (Biomolecules, 2020).

Molecules are shown by their SMILES.

The target in assay [1] is T1, Matrix metalloproteinase 1 (MMP-1) (Homo sapiens, UniProt P03956).
T1 construct: gene MMP1; MMP-1 secreted by human fibroblast (Detroit551) cells, 54 kDa band
T1 sequence (P03956 20-469): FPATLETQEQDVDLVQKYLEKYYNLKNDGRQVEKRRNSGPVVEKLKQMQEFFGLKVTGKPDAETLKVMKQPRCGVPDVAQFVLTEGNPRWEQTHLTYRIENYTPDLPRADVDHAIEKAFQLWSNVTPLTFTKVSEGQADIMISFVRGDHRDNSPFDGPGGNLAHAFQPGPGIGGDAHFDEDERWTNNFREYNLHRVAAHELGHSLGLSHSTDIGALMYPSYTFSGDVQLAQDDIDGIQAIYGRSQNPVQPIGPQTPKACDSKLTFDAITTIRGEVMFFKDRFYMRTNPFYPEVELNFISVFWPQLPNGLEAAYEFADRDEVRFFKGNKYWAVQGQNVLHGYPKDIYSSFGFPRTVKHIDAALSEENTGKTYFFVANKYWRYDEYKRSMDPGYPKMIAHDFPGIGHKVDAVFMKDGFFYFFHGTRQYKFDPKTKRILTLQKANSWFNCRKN
The assay is described as follows: casein zymography of protein from fibroblast culture medium preincubated with compound. It is filed as cell-based. Particulars: read-out: % inhibition at 1000 μg/mL.

The target in assay [2] is T1, Matrix metalloproteinase 1 (MMP-1). The assay is described as follows: casein zymography of protein from fibroblast culture medium preincubated with compound (reference inhibitor). The note with it: read-out: % inhibition at 1000 μg/mL. It counts as cell-based.

`Oc1cc(O)c2c(c1)O[C@H](c1ccc(O)c(O)c1)[C@H](O)C2` [(-)-epicatechin]: the inhibition at 1000 µg/mL in assay [1] is 69.2%. Turning to `O=C(O[C@@H]1Cc2c(O)cc(O)cc2O[C@@H]1c1cc(O)c(O)c(O)c1)c1cc(O)c(O)c(O)c1` [epigallocatechin gallate], the inhibition at 1000 µg/mL in assay [2] stood at 75.6%. In the case of `Oc1cc(O)c2c(c1)O[C@H](c1ccc(O)c(O)c1)[C@H](O)[C@H]2c1c(O)cc(O)c2c1O[C@H](c1ccc(O)c(O)c1)[C@H](O)C2` [proanthocyanidin B2], the inhibition at 1000 µg/mL in assay [1] amounted to 43.4%.
